Assay results taken from US20240101571A1, “NLRP3 MODULATORS” (Zomagen Biosciences Ltd, priority 2020, published 2024).

Tests used:
IL-1b [1] = assay: Human Whole Blood (HWB) IL-1b Assay; assay type: cell-based; settings: compound 0.5 h, 100 ng/mL LPS 3.5 h, 5 mM ATP 45 min, IL-1b ELISA of supernatant
Experimental: Assay run as in Tran et al. “Whole blood assay as a model for in vitro evaluation of inflammasome activation and subsequent caspase-mediated interleukin-1 beta release” PLoSONE 14(4): e0214999.https://doi.org/10.1371/journal.pone.0214999. Namely, freshly drawn human whole blood with anti-coagulant was incubated with test compounds at various titration points for 0.5 hrs at 37° C. in 5% CO2. The cells were subsequently primed with 100 ng/mL LPS for 3.5 hours at 37° C. followed by stimulation with 5 mM ATP for an additional 45 minutes. The supernatant was harvested and analyzed for human IL-1b concentration using commercially available ELISA kits.

IL-1b [2] = assay: Mouse BMDM IL-1b Assay; assay type: cell-based; settings: Macrophage, C57BL6 bone marrow derived macrophages, 200 ng/mL LPS 3 h, compound 30 min, 5 mM ATP 45 min, IL-1b ELISA of supernatant
Experimental: Mouse bone marrow cells from C57BL6 tibia and femur were culture in complete Isocov's Media supplemented with 20 ng/mL MCSF (BMDM media) at a density of 50 million cells/15 cm Petri dish. Fresh media was changed every 3 days, and bone marrow derived macrophages were collected, washed, and counted on day 7. Cells were seeded into 96 well plates at a density of 5×10^4 cells per well in 100 uL of BMDM media and cultured overnight. The cells were stimulated at 37° C. with 200 ng/mL Ultrapure LPS-B5 for 3 hours before pre-diluted compounds were added. 30 minutes after compound addition, 5 mM ATP was added for the secondary stimulation for 45 minutes. After stimulation, the plates were briefly spun down, and 50 uL of supernatant was harvested from each well. ELISA for mouse IL-1b was performed with 1:10 and 1:100 diluted supernatant using pre-coated kits. IL-1b concentrations were calculated based on pre-titrated standards, and compound inhibition IC50 is generated using the Levenberg Marquardt damped lease-square method.

IC50 (IL-1b [1]) | IC50 (IL-1b [2]) | SMILES
1000 to 10000 nM | – | CC(C)c1c(F)cc(F)c(C(C)C)c1NC(=O)NS(=O)(=O)c1cc2c(o1)C1CCN(CC1)C2 [Compound 36, N-((3,5-difluoro-2,6-diisopropylphenyl)carbamoyl)-4,6,7,8-tetrahydro-5,8-ethanofuro[3,2-c]azepine-2-sulfonamide]
1000 to 10000 nM | – | N#Cc1c2c(c(NC(=O)NS(=O)(=O)c3cc4c(o3)C3CCN(CC3)C4)c3c1CCC3)CCC2 [Compound 33, N-((8-cyano-1,2,3,5,6,7-hexahydro-s-indacen-4-yl)carbamoyl)-4,6,7,8-tetrahydro-5,8-ethanofuro[3,2-c]azepine-2-sulfonamide]
< 1000 nM | – | COc1cc(-c2ccc3c(c2NC(=O)NS(=O)(=O)c2cc4c(s2)C2CCN(CC2)C4)CCC3)ccn1 [Compound 28, N-((5-(2-methoxypyridin-4-yl)-2,3-dihydro-1H-inden-4-yl)carbamoyl)-4,6,7,8-tetrahydro-5,8-ethanothieno[3,2-c]azepine-2-sulfonamide]
< 1000 nM | – | CC(C)c1cc(F)c2c(c1NC(=O)NS(=O)(=O)c1cc3c(o1)C1CCN(CC1)C3)CCC2 [Compound 30, N-((7-fluoro-5-isopropyl-2,3-dihydro-1H-inden-4-yl)carbamoyl)-4,6,7,8-tetrahydro-5,8-ethanofuro[3,2-c]azepine-2-sulfonamide]
– | < 100 nM | O=C(Nc1c2c(cc3c1CCC3)CCC2)NS(=O)(=O)c1cc2c(s1)C1CCN(CC1)C2 [Compound 26, sodium ((1,2,3,5,6,7-hexahydro-s-indacen-4-yl)carbamoyl)((4,6,7,8-tetrahydro-5,8-ethanothieno[3,2-c]azepin-2-yl)sulfonyl)amide]
1000 to 10000 nM | – | CC(C)c1cc(F)cc(C(C)C)c1NC(=O)NS(=O)(=O)c1cc2c(o1)C1CCN(CC1)C2 [Compound 34, N-((4-fluoro-2,6-diisopropylphenyl)carbamoyl)-4,6,7,8-tetrahydro-5,8-ethanofuro[3,2-c]azepine-2-sulfonamide]
1000 to 10000 nM | – | CC#Cc1ccc2c(c1NC(=O)NS(=O)(=O)c1cc3c(o1)C1CCN(CC1)C3)CCC2 [Compound 44, N-((5-(prop-1-yn-1-yl)-2,3-dihydro-1H-inden-4-yl)carbamoyl)-4,6,7,8-tetrahydro-5,8-ethanofuro[3,2-c]azepine-2-sulfonamide]
< 1000 nM | – | O=C(Nc1c2c(cc3c1CCO3)CCC2)NS(=O)(=O)c1cc2c(o1)C1CCN(CC1)C2 [Compound 40, N-((3,5,6,7-tetrahydro-2H-indeno[5,6-b]furan-4-yl)carbamoyl)-4,6,7,8-tetrahydro-5,8-ethanofuro[3,2-c]azepine-2-sulfonamide]
< 1000 nM | < 100 nM | O=C(Nc1c2c(cc3c1CCC3)CCC2)NS(=O)(=O)c1cc2c(o1)C1CCN(CC1)C2 [Compound 13, sodium ((1,2,3,5,6,7-hexahydro-s-indacen-4-yl)carbamoyl)((4,6,7,8-tetrahydro-5,8-ethanofuro[3,2-c]azepin-2-yl)sulfonyl)amide]
1000 to 10000 nM | – | O=C(Nc1c(C2CCC2)ccc2c1CCC2)NS(=O)(=O)c1cc2c(o1)C1CCN(CC1)C2 [Compound 42, N-((5-cyclobuty1-2,3-dihydro-1H-inden-4-yl)carbamoyl)-4,6,7,8-tetrahydro-5,8-ethanofuro[3,2-c]azepine-2-sulfonamide]
< 1000 nM | – | O=C(Nc1c2c(c(F)c3c1CCC3)CCC2)NS(=O)(=O)c1cc2c(o1)C1CCN(CC1)C2 [Compound 32, N-((8-fluoro-1,2,3,5,6,7-hexahydro-s-indacen-4-yl)carbamoyl)-4,6,7,8-tetrahydro-5,8-ethanofuro[3,2-c]azepine-2-sulfonamide]
1000 to 10000 nM | – | O=C(Nc1c(C2=CCC2)ccc2c1CCC2)NS(=O)(=O)c1cc2c(o1)C1CCN(CC1)C2 [Compound 43, N-((5-(cyclobut-1-en-1-yl)-2,3-dihydro-1H-inden-4-yl)carbamoyl)-4,6,7,8-tetrahydro-5,8-ethanofuro[3,2-c]azepine-2-sulfonamide]
< 1000 nM | – | COc1cc(-c2ccc3c(c2NC(=O)NS(=O)(=O)c2cc4c(o2)C2CCN(CC2)C4)CCC3)ccn1 [Compound 27, N-((5-(2-methoxypyridin-4-yl)-2,3-dihydro-1H-inden-4-yl)carbamoyl)-4,6,7,8-tetrahydro-5,8-ethanofuro[3,2-c]azepine-2-sulfonamide]
1000 to 10000 nM | – | O=C(Nc1c(C2CCOCC2)ccc2c1CCC2)NS(=O)(=O)c1cc2c(o1)C1CCN(CC1)C2 [Compound 37, N-((5-(tetrahydro-2H-pyran-4-yl)-2,3-dihydro-1H-inden-4-yl)carbamoyl)-4,6,7,8-tetrahydro-5,8-ethanofuro[3,2-c]azepine-2-sulfonamide]
< 1000 nM | – | O=C(Nc1c(C2CC2)ccc2c1CCC2)NS(=O)(=O)c1cc2c(o1)C1CCN(CC1)C2 [Compound 38, N-((5-cyclopropyl-2,3-dihydro-1H-inden-4-yl)carbamoyl)-4,6,7,8-tetrahydro-5,8-ethanofuro[3,2-c]azepine-2-sulfonamide]
< 1000 nM | – | CC(C)c1ccc(F)c(C(C)C)c1NC(=O)NS(=O)(=O)c1cc2c(o1)C1CCN(CC1)C2 [Compound 31, N-((3-fluoro-2,6-diisopropylphenyl)carbamoyl)-4,6,7,8-tetrahydro-5,8-ethanofuro[3,2-c]azepine-2-sulfonamide]
< 1000 nM | – | CC(C)c1ccc2c(c1NC(=O)NS(=O)(=O)c1cc3c(o1)C1CCN(CC1)C3)CCC2 [Compound 29, N-((5-isopropyl-2,3-dihydro-1H-inden-4-yl)carbamoyl)-4,6,7,8-tetrahydro-5,8-ethanofuro[3,2-c]azepine-2-sulfonamide]
< 1000 nM | – | O=C(Nc1c(C(F)(F)F)ccc2c1CCC2)NS(=O)(=O)c1cc2c(o1)C1CCN(CC1)C2 [Compound 41, N-((5-(trifluoromethyl)-2,3-dihydro-1H-inden-4-yl)carbamoyl)-4,6,7,8-tetrahydro-5,8-ethanofuro[3,2-c]azepine-2-sulfonamide]
1000 to 10000 nM | – | O=C(Nc1c(C2CCCC2)ccc2c1CCC2)NS(=O)(=O)c1cc2c(o1)C1CCN(CC1)C2 [Compound 39, N-((5-cyclopentyl-2,3-dihydro-1H-inden-4-yl)carbamoyl)-4,6,7,8-tetrahydro-5,8-ethanofuro[3,2-c]azepine-2-sulfonamide]
< 1000 nM | – | CC(C)c1c(F)c(Cl)c(F)c(C(C)C)c1NC(=O)NS(=O)(=O)c1cc2c(o1)C1CCN(CC1)C2 [Compound 35, N-((4-chloro-3,5-difluoro-2,6-diisopropylphenyl)carbamoyl)-4,6,7,8-tetrahydro-5,8-ethanofuro[3,2-c]azepine-2-sulfonamide]
< 1000 nM | – | O=C(Nc1c2c(cc3c1CCC3)CCC2)NS(=O)(=O)c1cc2c(s1)C1CCN(CC1)C2 [Compound 25]
